Data taken from patent US8623347B2 (priority 2008, dated 2014).
Read-outs that look alike come from different tables or passages of the source.

Assays:
[1] = tested on: LCMV Armstrong strain (Arm53b); assay: organism not typed; format: cell-based; settings: for EC50: Vero
[2] = tested on: LCMV S RNA and NP mRNA; format: cell-based
[3] = tested on: LCMV NP and L proteins (replication and transcription of RNA analog); format: cell-based
[4] = in vitro
[5] = tested on: LCMV; settings: cited from earlier work
[6] = read-out: 50% effective concentration (EC50)
[7] = read-out: Activity (EC50 class)

With `c1ccc2[nH]c(-c3nc4ccccc4[nH]3)nc2c1` [Compound 1, 1H, 1′H-[2,2′]Bibenzoimidazolyl] the “screening result in compound library screen” value [1] was “hit”, the EC50 [1, 6] was 0.08 µM and the EC50 [1, 7] was less than 1 µM. For the same molecule, the “synthesis of viral S RNA and NP mRNA relative to untreated controls” value [2] was “dramatically suppressed”, the CAT reporter activity [3] was “No CAT activity was observed” and the CC50 [4] was greater than 25 µM.

With `Cc1cc2nc(-c3nc4cc(C)c(C)cc4[nH]3)[nH]c2cc1C` [Compound 2, 5,6,6′,6′-Tetramethyl-1H, 1′H-[2,2′]bibenzoimidazolyl] the EC50 [1, 7] was 1 to 10 µM.

Molecule `Cn1c(-c2nc3ccccc3n2C)nc2ccccc21` [Compound 3, 1,1′-Dimethyl-1H,1′H-[2,2′]bibenzoimidazolyl] has an EC50 [1, 7] greater than 25 µM.

Work on `O=[N+]([O-])c1ccc2nc(-c3nc4ccc([N+](=O)[O-])cc4[nH]3)[nH]c2c1` [Compound 5, 6,6′-Dinitro-1H,1′H-[2,2′]bibenzoimidazolyl] yielded an EC50 [1, 7] greater than 25 µM.

For `Fc1cccc2[nH]c(-c3nc4c(F)cccc4[nH]3)nc12` [Compound 6, 4,4′-Difluoro-1H,1′H-[2,2′]bibenzoimidazolyl], the EC50 [1, 6] was 0.006 µM and the EC50 [1, 7] was less than 1 µM.

For `Fc1ccc2[nH]c(-c3nc4cc(F)ccc4[nH]3)nc2c1` [Compound 7, 5,5′-Difluoro-1H,1′H-[2,2′]bibenzoimidazolyl], the EC50 [1, 6] was 0.063 µM and the EC50 [1, 7] was less than 1 µM.

In the case of `Clc1ccc2[nH]c(-c3nc4cc(Cl)ccc4[nH]3)nc2c1` [Compound 8, 5,5′-Dichloro-1H,1′H-[2,2′]bibenzoimidazolyl], the EC50 [1, 7] is reported as 1 to 10 µM.

`Brc1ccc2[nH]c(-c3nc4cc(Br)ccc4[nH]3)nc2c1` [Compound 9, 5,5′-Dibromo-1H,1′H-[2,2′]bibenzoimidazolyl] showed an EC50 [1, 7] of 1 to 10 µM.

In the case of `Cc1cccc2[nH]c(-c3nc4c(C)cccc4[nH]3)nc12` [Compound 10, 4,4′-Dimethyl-1H,1′H-[2,2′]bibenzoimidazolyl], the EC50 [1, 7] is reported as greater than 25 µM.

Molecule `Cc1ccc2[nH]c(-c3nc4cc(C)ccc4[nH]3)nc2c1` [Compound 11, 5,5′-Dimethyl-1H,1′H-[2,2′]bibenzoimidazolyl] has an EC50 [1, 7] greater than 25 µM.

For `COc1cccc2[nH]c(-c3nc4c(OC)cccc4[nH]3)nc12` [Compound 12, 4,4′-Dimethoxy-1H,1′H-[2,2′]bibenzoimidazolyl], the EC50 [1, 7] was greater than 25 µM.

With `COc1ccc2[nH]c(-c3nc4cc(OC)ccc4[nH]3)nc2c1` [Compound 13, 5,5′-Dimethoxy-1H,1′H-[2,2′]bibenzoimidazolyl] the EC50 [1, 7] was 10 to 25 µM.

For `COC(=O)c1cccc2[nH]c(-c3nc4c(C(=O)OC)cccc4[nH]3)nc12` [Compound 14, 1H,1′H-[2,2′]Bibenzoimidazolyl-4,4′-dicarboxylic acid dimethyl ester], the EC50 [1, 7] was greater than 25 µM.

Molecule `COC(=O)c1ccc2[nH]c(-c3nc4cc(C(=O)OC)ccc4[nH]3)nc2c1` [Compound 15, 1H,1′H-[2,2′]Bibenzoimidazolyl-5,5′-dicarboxylic acid dimethyl ester] has an EC50 [1, 7] greater than 25 µM.

For `c1ccc(-c2cccc3[nH]c(-c4nc5c(-c6ccccc6)cccc5[nH]4)nc23)cc1` [Compound 16, 4,4′-Diphenyl-1H,1′H-[2,2′]bibenzoimidazolyl], the EC50 [1, 7] was greater than 25 µM and the melting point was 247 to 250 °C (dec.).

`Fc1ccc2[nH]c(-c3nc4c(F)c(F)ccc4[nH]3)nc2c1F` [Compound 17, 4,5,4′,5′-Tetrafluoro-1H,1′H-[2,2′]bibenzoimidazolyl] showed an EC50 [1, 7] of less than 1 µM.

`Fc1cc(F)c2nc(-c3nc4c(F)cc(F)cc4[nH]3)[nH]c2c1` [Compound 18, 4,6,4′,6′-Tetrafluoro-1H,1′H-[2,2′]bibenzoimidazolyl] showed an EC50 [1, 7] of less than 1 µM.

With `Fc1cc2nc(-c3nc4cc(F)c(F)cc4[nH]3)[nH]c2cc1F` [Compound 19, 5,6,5′,6′-Tetrafluoro-1H,1′H-[2,2′]bibenzoimidazolyl] the EC50 [1, 7] was less than 1 µM.

Work on `c1cnc2nc(-c3nc4ncccc4[nH]3)[nH]c2c1` [Compound 20, 1H,1′H-[2,2′]Bi[imidazo[4,5 b]pyridinyl]] yielded an EC50 [1, 7] of less than 1 µM.

`c1cc2nc(-c3nc4ccncc4[nH]3)[nH]c2cn1` [Compound 21, 3H,3′H-[2,2′]Bi[imidazo[4,5 c]pyridinyl]] gave an EC50 [1, 7] of 10 to 25 µM and a melting point greater than 300 °C.

For `NC(=O)c1ncn([C@@H]2O[C@H](CO)[C@@H](O)[C@H]2O)n1` [ribavirin], the “antiviral activity against LCMV in vitro” value [5] is given as “limited antiviral activity”.
